Counter-ions that a name gives are not always drawn.
What was measured:
[1] = system: calf intestine alkaline phosphatase; assay: Kinetic study of alkaline phosphatase with substrate (double reciprocal plot); type: biochemical; conditions: 540 nm, substrate 0.1-10 mmolar, enzyme 0.01 I.U./ml, sodium carbonate 100 mmolar, pH 10
Source text: The magnesium salt substrate prepared in Example 1 was used to determine reaction rates and kinetic parameters for alkaline phosphatase at 540 nm. The study was done by using the substrate (concentration range 0.1 mmolar to 10 mmolar), calf intestine alkaline phosphatase (0.01 I.U./ml), sodium carbonate (100 mmolar, pH 10), magnesium chloride (1 mmolar) and zinc perchlorate (1 mmolar). From the data obtained, a double reciprocal plot was drawn.

beef liver ALP = assay: Solution assay for alkaline phosphatase (fluorescence); type: biochemical; conditions: excitation 535 nm, emission 580 nm
Experimental: A solution was prepared using the substrate of Example 1 (10^-5 molar), magnesium acetate ([…]) and TRIS buffer (0.1 molar, pH 8.5). One milliliter of this solution was placed in each of two test cells. To one cell was added beef liver ALP (100 μl, 10^-5 molar). No ALP was placed in the second cell.
The relative fluorescence of the solution in the test cell containing the ALP-hydrolyzed substrate was measured at an excitation of 535 nm and an emission of 580 nm. […]

O=C1C=Cc2ccc(OP(=O)(O)O)c3cccc1c23 [phenalenone-6-phosphate magnesium salt]
rate of reaction (Vmax) [1]: 0.029 absorbance (A) units/minute | Km ([1]; MgCl2 1 mmolar, zinc perchlorate 1 mmolar, read-out: Michaelis constant (Km)): 1400 µM

O=C1C=Cc2ccc(OP(=O)(O)O)c3cccc1c23 [substrate of Example 1, PHENALENONE-6-PHOSPHATE]
relative fluorescence of unhydrolyzed substrate (beef liver ALP; no ALP added): Minimal fluorescence | relative fluorescence of ALP-hydrolyzed substrate (beef liver ALP; substrate 10^-5 molar, TRIS 0.1 molar pH 8.5, with beef liver ALP): rapid generation of fluorescence
